Experimental findings from ChEMBL document CHEMBL5214920, “Emerging impact of triazoles as anti-tubercular agent” (Eur J Med Chem, 2022) are described below.

The subject of assay [1] is Mycobacterium tuberculosis. Put plainly: Antitubercular activity against Mycobacterium tuberculosis H37Rv assessed as bacterial growth inhibition by micro broth dilution assay. Type of assay: functional.
Assay [2] deals with Mycobacterium tuberculosis. Put plainly: Antitubercular activity against Mycobacterium tuberculosis H37Rv ATCC 27294 assessed as bacterial growth inhibition. Type of assay: functional.
Assay [3] concerns Mycobacterium tuberculosis. Description: Antitubercular activity against Mycobacterium tuberculosis H37Rv assessed as bacterial growth inhibition. Type of assay: functional.
Assay [4] concerns Mycobacterium tuberculosis. Description: Antitubercular activity against Mycobacterium tuberculosis mc 2 6230 assessed as bacterial growth inhibition. Format: functional.
Assay [5] concerns Mycobacterium tuberculosis. Put plainly: Antitubercular activity against Mycobacterium tuberculosis H37Rv assessed as bacterial growth inhibition at 6.25 ug/ml measured after 5 to 8 days by radiometric analysis relative to control. The settings on record: dose 6.25 µg/ml; time 5-8 day. On the set-up: scale not given: the % may be the effect or the level left. Format: functional.

Assay [6] deals with DNA gyrase subunit A/DNA gyrase subunit B (Mycobacterium tuberculosis (strain ATCC 25618 / H37Rv), UniProt P9WG45+P9WG47). Description: Inhibition of Mycobacterium tuberculosis DNA gyrase supercoiling activity. Format: protein-complex assay.
For a further assay, the target named is DNA gyrase subunit B (Mycobacterium smegmatis, UniProt P0C559). Description: Inhibition of Mycobacterium smegmatis GyrB incubated for 120 mins in presence of ATP by malachite green r staining based assay. On the set-up: species or system Mycolicibacterium smegmatis.
For assay [7], the system named is Mycobacterium tuberculosis. Description: Antitubercular activity against Mycobacterium tuberculosis H37Rv assessed as bacterial growth inhibition measured after 7 days by MABA method. Type of assay: functional. The settings on record: 168 h, time 7 day.
Assay [8] has as its system Mycobacterium tuberculosis. Put plainly: Antitubercular activity against Mycobacterium tuberculosis H37Rv ATCC 27294 assessed as bacterial growth inhibition by agar dilution method. Format: functional.
Assay [9] has as its system Mycobacterium tuberculosis. Description: Antitubercular activity against Mycobacterium tuberculosis H37Rv ATCC 27294 assessed as bacterial growth inhibition measured after 10 days by MABA method. Type of assay: functional. To be noted: H37Rv ATCC 27294, 240 h, time 10 day.
Assay [10] has as its system Mycobacterium tuberculosis. Put plainly: Antitubercular activity against Mycobacterium tuberculosis H37Rv assessed as bacterial growth inhibition measured after 7 days by REMA method. Format: functional. To be noted: 168 h, time 7 day.
In assay [11] the test system is Mycobacterium tuberculosis. Put plainly: Antitubercular activity against Mycobacterium tuberculosis mc 2 7000 assessed as bacterial growth inhibition. Type of assay: functional.
The test system of assay [12] is Mycobacterium tuberculosis. Description: Antitubercular activity against Mycobacterium tuberculosis H37Rv assessed as reduction in relative light units at 25 ug/ml incubated for 4 hrs followed by addition of D-luciferin by luciferase based luminometer analysis relative to control. Type of assay: functional. On the set-up: scale not given: the % may be the effect or the level left. To be noted: dose 25 µg/ml.

The subject of assay [13] is Mycobacterium tuberculosis. Description: Antitubercular activity against Mycobacterium tuberculosis H37Rv assessed as reduction in relative light units at 5 ug/ml incubated for 4 hrs followed by addition of D-luciferin by luciferase based luminometer analysis relative to control. Format: functional. Set-up: scale not given: the % may be the effect or the level left. To be noted: dose 5 µg/ml.

Assay [14] concerns Mycobacterium tuberculosis. Put plainly: Antitubercular activity against Mycobacterium tuberculosis H37Rv ATCC 27294 assessed as bacterial growth inhibition measured after 5 days by MABA method. Format: functional. The settings on record: H37Rv ATCC 27294, 120 h, time 5 day.
Assay [15] deals with Mycobacterium tuberculosis. Put plainly: Antitubercular activity against Mycobacterium tuberculosis H37Rv assessed as bacterial growth inhibition measured after 5 days by MABA method. Format: functional. To be noted: 120 h, time 5 day.
For assay [16], the system named is Mycobacterium tuberculosis. Put plainly: Antitubercular activity against Mycobacterium tuberculosis H37Rv ATCC 27294 assessed as bacterial growth inhibition measured after 7 days by MABA method. Format: functional. To be noted: H37Rv ATCC 27294, 168 h, time 7 day.
The subject of assay [17] is Mycobacterium tuberculosis. Put plainly: Antitubercular activity against Mycobacterium tuberculosis H37Rv assessed as bacterial growth inhibition measured after 7 days by broth microdilution assay. Type of assay: functional. To be noted: 168 h, time 7 day.
Assay [18] has as its system Mycobacterium tuberculosis. Put plainly: Antitubercular activity against active stage of Mycobacterium tuberculosis H37Ra ATCC 25177 assessed as bacterial growth inhibition by XTT assay. Format: functional.
The test system of assay [19] is Mycobacterium tuberculosis. Put plainly: Antitubercular activity against dormant stage of Mycobacterium tuberculosis H37Ra ATCC 25177 assessed as bacterial growth inhibition by XTT assay. Type of assay: functional.
In assay [20] the test system is Mycobacterium tuberculosis. Description: Antitubercular activity against Mycobacterium tuberculosis H37Rv assessed as bacterial growth inhibition measured after 7 days by direct susceptibility assay. The settings on record: 168 h, time 7 day. Type of assay: functional.
The test system of assay [21] is Mycobacterium tuberculosis. Put plainly: Antitubercular activity against Mycobacterium tuberculosis H37Rv assessed as bacterial growth inhibition measured after 24 hrs by agar micro dilution method. Type of assay: functional.
Assay [22] concerns Mycobacterium tuberculosis. Put plainly: Antitubercular activity against Mycobacterium tuberculosis H37Rv ATCC 27294 assessed as bacterial growth inhibition measured after 48 hrs by broth dilution method. Format: functional.

SMILES strings stand for the structures. Converted amounts (≈) assume the structure as drawn.

Chain of DNA gyrase subunit A/DNA gyrase subunit B (P9WG45 whole entry): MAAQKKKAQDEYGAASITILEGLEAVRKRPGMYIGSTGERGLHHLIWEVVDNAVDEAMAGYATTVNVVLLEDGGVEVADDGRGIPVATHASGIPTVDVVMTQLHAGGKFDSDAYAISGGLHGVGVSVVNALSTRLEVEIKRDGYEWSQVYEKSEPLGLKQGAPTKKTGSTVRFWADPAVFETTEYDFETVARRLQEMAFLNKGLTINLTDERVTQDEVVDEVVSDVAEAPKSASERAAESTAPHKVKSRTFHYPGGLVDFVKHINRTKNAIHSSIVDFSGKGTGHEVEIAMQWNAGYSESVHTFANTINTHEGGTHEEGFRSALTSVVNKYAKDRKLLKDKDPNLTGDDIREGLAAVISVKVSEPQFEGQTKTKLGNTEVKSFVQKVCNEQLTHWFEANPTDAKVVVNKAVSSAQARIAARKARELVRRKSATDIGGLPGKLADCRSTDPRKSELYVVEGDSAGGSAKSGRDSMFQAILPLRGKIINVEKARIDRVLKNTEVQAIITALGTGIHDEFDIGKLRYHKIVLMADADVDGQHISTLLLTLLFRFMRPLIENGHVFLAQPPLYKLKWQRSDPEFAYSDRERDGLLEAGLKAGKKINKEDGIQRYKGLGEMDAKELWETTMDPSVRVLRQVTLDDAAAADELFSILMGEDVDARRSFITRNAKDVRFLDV
Chain of DNA gyrase subunit A/DNA gyrase subunit B (P9WG47 whole entry): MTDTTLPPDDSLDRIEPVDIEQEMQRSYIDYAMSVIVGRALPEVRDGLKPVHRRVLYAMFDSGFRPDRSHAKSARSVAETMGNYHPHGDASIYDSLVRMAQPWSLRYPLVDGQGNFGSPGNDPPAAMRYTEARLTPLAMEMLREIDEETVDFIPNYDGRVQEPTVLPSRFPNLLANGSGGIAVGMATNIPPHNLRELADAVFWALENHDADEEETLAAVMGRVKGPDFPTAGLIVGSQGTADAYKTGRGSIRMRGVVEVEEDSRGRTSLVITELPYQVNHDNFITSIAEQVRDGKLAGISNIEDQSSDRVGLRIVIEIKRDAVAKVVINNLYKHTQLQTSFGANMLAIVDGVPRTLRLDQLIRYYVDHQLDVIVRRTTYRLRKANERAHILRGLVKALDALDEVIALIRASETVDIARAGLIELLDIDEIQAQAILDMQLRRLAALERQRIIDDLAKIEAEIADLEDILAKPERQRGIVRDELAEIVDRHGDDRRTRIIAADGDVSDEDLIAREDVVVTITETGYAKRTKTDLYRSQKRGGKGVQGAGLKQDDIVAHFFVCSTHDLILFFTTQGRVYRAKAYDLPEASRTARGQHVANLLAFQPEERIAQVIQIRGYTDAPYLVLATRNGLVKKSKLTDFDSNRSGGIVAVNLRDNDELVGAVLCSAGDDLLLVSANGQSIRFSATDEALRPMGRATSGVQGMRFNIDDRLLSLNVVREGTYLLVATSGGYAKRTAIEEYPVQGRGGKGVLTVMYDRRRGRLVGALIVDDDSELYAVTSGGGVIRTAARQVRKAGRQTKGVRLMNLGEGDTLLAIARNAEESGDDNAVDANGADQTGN
Chain of DNA gyrase subunit B (P0C559 whole entry): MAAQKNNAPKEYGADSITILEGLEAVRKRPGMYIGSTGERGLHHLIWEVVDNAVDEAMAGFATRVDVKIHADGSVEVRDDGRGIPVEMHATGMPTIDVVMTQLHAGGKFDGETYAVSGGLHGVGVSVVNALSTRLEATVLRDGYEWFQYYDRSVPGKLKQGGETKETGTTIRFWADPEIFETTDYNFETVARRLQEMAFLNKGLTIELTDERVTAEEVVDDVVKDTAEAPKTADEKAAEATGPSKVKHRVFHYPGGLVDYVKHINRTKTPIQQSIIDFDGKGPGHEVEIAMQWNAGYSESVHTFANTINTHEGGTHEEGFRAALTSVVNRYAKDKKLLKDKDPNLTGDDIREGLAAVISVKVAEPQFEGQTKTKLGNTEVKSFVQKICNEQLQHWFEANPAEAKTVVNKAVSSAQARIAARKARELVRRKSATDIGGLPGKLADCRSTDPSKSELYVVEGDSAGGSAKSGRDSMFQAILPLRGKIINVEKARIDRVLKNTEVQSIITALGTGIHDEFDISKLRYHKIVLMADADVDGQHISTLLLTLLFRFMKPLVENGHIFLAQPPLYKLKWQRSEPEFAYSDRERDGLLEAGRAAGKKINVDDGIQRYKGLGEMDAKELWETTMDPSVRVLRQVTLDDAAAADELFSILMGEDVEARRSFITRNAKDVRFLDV

As to `Brc1ccc(/C=C/c2nnc3c4ccccc4cnn23)cc1`, in assay [1], the MIC was 0.5 µg/mL.
`CCCCCc1ccc(-c2cn(-c3c(C(=O)OCC)c(=O)n(C)c4ccccc34)nn2)cc1`: the MIC in [2] was 3.13 µg/mL (≈ 7.04 µM).
For the molecule `O=C1Nc2ccccc2/C1=N\OCc1cn(Cc2ccc(C(F)(F)F)cc2)nn1`, the MIC in assay [3] was found to be 1.56 µg/mL (≈ 3.89 µM).
Take `C#Cc1nnc2c3ccccc3cnn12`: the minimal inhibitory concentration (MIC) in assay [1] was 0.5 µg/mL.
Consider `COc1ccc2c(c1)/C(=N/NC(=O)c1ccncc1)C(=O)N2Cc1cn(-c2ccccc2/C=N\NC(=O)c2ccncc2)nn1`, for which the MIC99 in assay [4] came out at 0.36 µg/mL (≈ 0.599 µM).
With `Cc1nc2ccccc2n2c(-c3cccc([N+](=O)[O-])c3)nnc12`, in assay [5], the Activity was 2%.
On to `CCCCCCCCCNC(=O)Cc1nnc2c3ccccc3cnn12`, for which, in assay [1], the MIC was determined as 0.5 µg/mL.
For the molecule `COc1ccc2cc(-n3cc(COc4nc(-c5ccccn5)sc4C(N)=O)nn3)c(=O)oc2c1`, the IC50 in assay [6] was 500 nM; on DNA gyrase subunit B it was 440 nM. The MIC in assay [7] turned out to be 6.5 µM.
For the molecule `CC1(C)OC2C3OC(C)(C)O[C@H]3C(Cn3cc(N4CCCC4=O)nn3)O[C@@H]2O1` (some centres not stated), the MIC in assay [8] was 3.12 µg/mL (≈ 7.92 µM).
`CC1=CN([C@H]2C[C@H](O)[C@@H](Cn3nnc(C(=O)c4ccc(Cl)cc4)c3-c3ccc(C(C)(C)C)cc3)O2)C(=O)CC1=O`: the minimum inhibitory concentration (MIC) in [9] was found to be 2 µg/mL (≈ 3.55 µM).
Regarding `CCOC(=O)c1c(-n2cc(-c3ccc(C)cc3)nn2)c2ccccc2n(C)c1=O`, in assay [2], the MIC came out at 3.13 µg/mL (≈ 8.06 µM).
As to `COc1ccc(-n2nc(C)cc2Cn2cncn2)cc1`, the MIC in [10] came out at 100 µg/mL (≈ 371 µM).
Consider `O=C(N/N=C\c1ccccc1-n1cc(CN2C(=O)/C(=N\NC(=O)c3ccncc3)c3cc(Cl)ccc32)nn1)c1ccncc1`, for which, in assay [4], the MIC99 is 0.36 µg/mL (≈ 0.595 µM).
Consider `CC1=CN([C@H]2C[C@H](O)[C@@H](Cn3nnc(C(=O)c4ccc(Br)cc4)c3-c3ccc([N+](=O)[O-])cc3)O2)C(=O)CC1=O`, for which the MIC in assay [9] was found to be 2 µg/mL (≈ 3.35 µM).
Still for that read-out and setting: for `CC1=CN([C@H]2C[C@H](O)[C@@H](Cn3nnc(C(=O)c4ccc(Cl)cc4)c3-c3ccc(F)cc3)O2)C(=O)CC1=O` the value was 2 µg/mL (≈ 3.81 µM).
Regarding `O=C(OCc1cn(-c2ccccc2)nn1)c1c[n+]([O-])c2ccc(Cl)cc2[n+]1[O-]`, the MIC in assay [4] amounted to 30.4 µg/mL (≈ 76.3 µM); in [11], 30.4 µg/mL; in [3], 30.4 µg/mL (≈ 76.3 µM).
In the case of `CC1(C)OC2C3OC(C)(C)O[C@H]3C(Cn3cc(N4C(=O)CCC4=O)nn3)O[C@@H]2O1` (some centres not stated), the MIC in assay [8] turned out to be 3.12 µg/mL (≈ 7.65 µM).
For the molecule `COc1cccc(-c2nnc3c(C)nc4ccccc4n23)c1`, the Activity in assay [5] was 2%.
In the case of `Cc1nc2ccccc2n2c(-c3ccc(N(C)C)cc3)nnc12`, in assay [5], the Activity turned out to be 2%.
For `CC(=O)OC[C@H]1O[C@@H](Oc2cn(Cc3ccc4ccccc4n3)nn2)[C@H](OC(C)=O)[C@@H](OC(C)=O)[C@H]1OC(C)=O`, the Activity in assay [12] came out at 78.37%; in [13], 76.41%.
Turning to `Cc1nc2ccccc2n2c(-c3ccccc3)nnc12`, the Activity in [5] is 2%.
With `CC1=C(C(=O)O)N2C(=O)[C@@H](NC(=O)[C@H](N)c3ccccc3)[C@H]2SC1` [CEPHALEXIN ANHYDROUS], the MIC in [11] is 72 µM.
On to `CC[C@@H](CO)NCCN[C@@H](CC)CO` [ETHAMBUTOL], for which the MIC in assay [14] is 7.63 µM; in assay [15], 1.56 µg/mL (≈ 7.64 µM); in assay [16] it was 7.64 µM (≈ 1.56 µg/mL); in assay [17], 6.25 µM (≈ 1.28 µg/mL); in [1], 1 µg/mL; in assay [7], 1.56 µg/mL.
Regarding `CCc1cc(C(N)=S)ccn1` [ETHIONAMIDE], the MIC in assay [11] came to 90.4 µM.
Turning to `NNC(=O)c1ccncc1` [ISONIAZID], the MIC in assay [14] was 0.7 µM; in [18], 0.074 µg/mL (≈ 0.54 µM); in assay [19], 0.043 µg/mL (≈ 0.314 µM); in assay [20] it was 0.075 µg/mL (≈ 0.547 µM); in assay [9], more than 300 µg/mL; in assay [1], 0.05 µg/mL. Further, in assay [11], the MIC stood at 2.92 µM.
With `CN[C@@H]1[C@H](O[C@H]2[C@H](O[C@H]3[C@H](O)[C@@H](O)[C@H](N=C(N)N)[C@@H](O)[C@@H]3N=C(N)N)O[C@@H](C)[C@]2(O)C=O)O[C@@H](CO)[C@H](O)[C@H]1O` [STREPTOMYCIN], the MIC in assay [14] is 6.25 µg/mL; in [15], more than 6.25 µg/mL; in [9], 2 µg/mL (≈ 3.44 µM); in assay [21] it was 3.12 µg/mL (≈ 5.37 µM).
In the case of `Cc1ccc(-c2nc3ccc(C)cn3c2CC(=O)N(C)C)cc1` [ZOLPIDEM], the minimal inhibitory concentration (MIC) turned out to be 3.12 µg/mL in [14] and 10 µM (≈ 3.07 µg/mL) in assay [22].
